# From paper PMC5161551 (Nature chemical biology, 2016)
# How the values were obtained:
# IL-6 = test: TNFα-induced IL-6 secretion in MCF-7 cells; assay type: cell-based, human; details: MCF-7, 10 ng/ml TNFα, ligand 10 μM, 24 hr
# [1] = system: uterus of ovariectomized mice; test: Mouse uterotrophic assay; assay type: in vivo; details: 240 μg in combination with E2 (10 ng), sc, 4 days
# [2] = system: complement component C3, lactoferrin, and aquaporin 5; test: Uterine expression of E2-regulated genes; assay type: in vivo, mouse; details: ovariectomized mice, 4 days
# ERα = target: T1, ERα (Mus musculus, UniProt P19785); test: ERα+ cells in mouse uterus; assay type: in vivo; details: mouse uterine tissue after the uterotrophic assay
# T1 sequence (P19785 1-599): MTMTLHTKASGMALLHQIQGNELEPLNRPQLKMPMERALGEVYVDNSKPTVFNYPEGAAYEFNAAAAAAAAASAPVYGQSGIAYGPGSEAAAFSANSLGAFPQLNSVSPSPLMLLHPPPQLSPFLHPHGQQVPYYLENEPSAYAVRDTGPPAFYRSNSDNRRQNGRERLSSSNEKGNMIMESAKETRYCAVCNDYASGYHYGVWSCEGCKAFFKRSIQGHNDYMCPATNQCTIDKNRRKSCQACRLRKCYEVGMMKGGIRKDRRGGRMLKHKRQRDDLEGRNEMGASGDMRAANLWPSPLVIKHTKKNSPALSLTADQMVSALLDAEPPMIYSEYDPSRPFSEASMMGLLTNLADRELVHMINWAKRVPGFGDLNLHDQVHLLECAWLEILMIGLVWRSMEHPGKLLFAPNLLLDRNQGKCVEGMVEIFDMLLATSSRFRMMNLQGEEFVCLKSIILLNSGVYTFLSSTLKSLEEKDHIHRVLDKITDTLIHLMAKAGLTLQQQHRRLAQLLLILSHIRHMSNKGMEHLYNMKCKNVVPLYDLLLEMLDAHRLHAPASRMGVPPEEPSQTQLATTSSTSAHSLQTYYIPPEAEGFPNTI
compound,measurement,setting,value
C[C@]12CC[C@@H]3c4ccc(O)cc4C[C@@H](CCCCCCCCC[S+]([O-])CCCC(F)(F)C(F)(F)F)[C@H]3[C@@H]1CC[C@@H]2O (some centres unmarked) [fulvestrant],inhibition of TNFα-induced IL-6 secretion,IL-6,did not inhibit IL-6 secretion
same,effect on E2-stimulated uterine growth,[1],significantly reduced the E2-stimulated uterine growth
same,effect on E2-stimulated expression of genes in uterus,[2]; 240 μg in combination with E2 (10 ng),markedly reduced the E2-stimulated expression levels of these genes
same,expression of E2-induced genes in uterus (compound alone),[2]; 240 μg,failed to increase the expression of E2-induced genes
same,ERα expression in uterus (ERα+ cells),ERα,robustly inhibited ERα expression
